For orientation: GI50 means the concentration that inhibits growth by half.

This passage reports Activity and GI50 results from ChEMBL document CHEMBL2321780, “Fluorinated quinazolinones as potential radiotracers for imaging kinesin spindle protein expression” (2013).

The test system of assay [1] is PC-3. Briefly: Cell cycle arrest in human PC3 cells assessed as accumulation in G0/G1 phase at 100 nM after 24 hrs by FACS analysis (reference value: 32.6%). Format: functional.
In assay [2] the test system is SK-OV-3. Description: Cell cycle arrest in human SKOV3 cells assessed as accumulation in G2/M phase at 100 nM after 24 hrs by FACS analysis (reference value: 21.8%). Type of assay: functional. (In general: A flow cytometer gives signals particle by particle.)
In assay [3] the test system is PC-3. Description: Cell cycle arrest in human PC3 cells assessed as accumulation in S phase at 100 nM after 24 hrs by FACS analysis (reference value: 14.2%). Format: functional.
Assay [4] concerns MCF7. Briefly: Cell cycle arrest in human MCF7 cells assessed as accumulation in G2/M phase at 100 nM after 24 hrs by FACS analysis (reference value: 22.4%). Format: functional.
Assay [5] relates to DU-145. Description: Cell cycle arrest in human DU145 cells assessed as accumulation in S phase at 100 nM after 24 hrs by FACS analysis (reference value: 4.5%). Type of assay: functional.
Assay [6] concerns MCF7. Description: Cell cycle arrest in human MCF7 cells assessed as accumulation in S phase at 100 nM after 24 hrs by FACS analysis (reference value: 19.6%). Format: functional.
In assay [7] the test system is MCF7. Briefly: Cell cycle arrest in human MCF7 cells assessed as accumulation in G0/G1 phase at 100 nM after 24 hrs by FACS analysis (reference value: 48.2%). Format: functional.
In assay [8] the test system is SK-OV-3. Description: Cell cycle arrest in human SKOV3 cells assessed as accumulation in S phase at 100 nM after 24 hrs by FACS analysis (reference value: 18.4%). Type of assay: functional.
The test system of assay [9] is SK-OV-3. Description: Cell cycle arrest in human SKOV3 cells assessed as accumulation in G0/G1 phase at 100 nM after 24 hrs by FACS analysis (reference value: 51.1%). Format: functional.
Assay [10] concerns DU-145. Description: Cell cycle arrest in human DU145 cells assessed as accumulation in G0/G1 phase at 100 nM after 24 hrs by FACS analysis (reference value: 53.2%). Format: functional.
For assay [11], the target named is T1, Kinesin-like protein KIF11 (Homo sapiens) (UniProt P52732).
T1 sequence (whole entry): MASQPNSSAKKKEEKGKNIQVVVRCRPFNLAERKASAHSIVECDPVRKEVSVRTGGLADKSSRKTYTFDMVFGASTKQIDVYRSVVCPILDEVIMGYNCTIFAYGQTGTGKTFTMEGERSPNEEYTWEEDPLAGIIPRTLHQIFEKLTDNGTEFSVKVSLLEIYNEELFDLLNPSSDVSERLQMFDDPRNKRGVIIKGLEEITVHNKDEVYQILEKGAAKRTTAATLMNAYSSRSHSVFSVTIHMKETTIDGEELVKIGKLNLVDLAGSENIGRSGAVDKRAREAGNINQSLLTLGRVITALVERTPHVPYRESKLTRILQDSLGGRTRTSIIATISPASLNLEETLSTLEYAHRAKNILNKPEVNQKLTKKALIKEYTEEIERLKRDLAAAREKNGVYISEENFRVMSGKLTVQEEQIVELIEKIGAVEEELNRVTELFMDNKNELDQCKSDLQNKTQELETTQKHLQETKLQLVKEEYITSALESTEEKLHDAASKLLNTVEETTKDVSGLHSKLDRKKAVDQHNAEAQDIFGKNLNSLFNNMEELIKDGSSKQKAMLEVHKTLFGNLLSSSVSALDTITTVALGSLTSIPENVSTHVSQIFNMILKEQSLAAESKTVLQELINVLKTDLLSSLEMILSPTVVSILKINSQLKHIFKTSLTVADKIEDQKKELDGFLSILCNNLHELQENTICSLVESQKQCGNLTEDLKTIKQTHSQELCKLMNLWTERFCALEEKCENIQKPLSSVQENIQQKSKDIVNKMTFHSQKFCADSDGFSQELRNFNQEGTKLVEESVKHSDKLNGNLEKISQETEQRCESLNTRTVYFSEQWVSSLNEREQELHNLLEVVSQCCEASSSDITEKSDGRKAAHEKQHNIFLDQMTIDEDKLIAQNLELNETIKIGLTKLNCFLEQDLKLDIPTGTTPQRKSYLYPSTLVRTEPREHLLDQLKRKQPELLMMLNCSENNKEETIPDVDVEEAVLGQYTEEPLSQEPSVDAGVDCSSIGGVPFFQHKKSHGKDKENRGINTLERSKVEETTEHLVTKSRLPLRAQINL
Briefly: Inhibition of KSP (unknown origin)-mediated ATP hydrolysis assessed as residual activity at 1 uM after 10 to 20 mins by spectrophotometric analysis.

For assay [12], the system named is DU-145. Briefly: Cell cycle arrest in human DU145 cells assessed as accumulation in G2/M phase at 100 nM after 24 hrs by FACS analysis (reference value: 31%). Format: functional.
The subject of assay [13] is PC-3. Briefly: Cell cycle arrest in human PC3 cells assessed as accumulation in G2/M phase at 100 nM after 24 hrs by FACS analysis (reference value: 26.3%). Format: functional.
The test system of assay [14] is DU-145. Description: Nonspecific cytotoxicity against human DU145 cells after 44 hrs by MTT assay. The settings on record: DU-145, 44 h. Format: functional. For orientation: Tetrazolium dyes change colour on reduction, which living cells bring about.
The subject of assay [15] is MCF7. Description: Nonspecific cytotoxicity against human MCF7 cells after 44 hrs by MTT assay. Format: functional. The settings on record: MCF7, 44 h.
Assay [16] concerns SK-OV-3. Briefly: Cell cycle arrest in human SKOV3 cells assessed as monoaster phenotype at 100 nM after 22 hrs by confocal microscopic analysis. Format: functional, cell-based.
In assay [17] the test system is DU-145. Description: Cytotoxicity against human DU145 cells assessed as inhibition of KSP-mediated cell cycle progression after 44 hrs by MTT assay. Type of assay: functional. The settings on record: DU-145, 44 h.
Assay [18] deals with MCF7. Description: Cytotoxicity against human MCF7 cells assessed as inhibition of KSP-mediated cell cycle progression after 44 hrs by MTT assay. The settings on record: MCF7, 44 h. Format: functional.
The test system of assay [19] is SK-OV-3. Description: Cytotoxicity against human SKOV3 cells assessed as inhibition of KSP-mediated cell cycle progression after 44 hrs by MTT assay. Type of assay: functional. The conditions noted are these: SK-OV-3, 44 h.
Assay [20] has as its system PC-3. Briefly: Cytotoxicity against human PC3 cells assessed as inhibition of KSP-mediated cell cycle progression after 44 hrs by MTT assay. Format: functional. The conditions noted are these: PC-3, 44 h.
For assay [21], the system named is SK-OV-3. Description: Cell cycle arrest in human SKOV3 cells assessed as phospho-histone3 level at 100 nM after 24 hrs by immunostaining analysis. Type of assay: functional.
Assay [22] deals with SK-OV-3. Briefly: Cell cycle arrest in human SKOV3 cells assessed as absence of normal mitotic stages at 100 nM after 24 hrs by confocal microscopic analysis. Format: functional, cell-based.
Assay [23] relates to SK-OV-3. Briefly: Cytotoxicity against human SKOV3 cells assessed as inhibition of KSP-mediated cell cycle progression after 44 hrs by BrdU incorporation assay. Type of assay: functional. The conditions noted are these: SK-OV-3, 44 h. On the technique in general: Incorporation of labelled thymidine or its analogues reports DNA synthesis.
For assay [24], the system named is SK-OV-3. Briefly: Cell cycle arrest in human SKOV3 cells assessed as monoaster phenotype at 100 nM after 24 hrs by confocal microscopic analysis. Format: functional, cell-based.
Assay [25] has as its system SK-OV-3. Briefly: Nonspecific cytotoxicity against human SKOV3 cells after 44 hrs by BrdU incorporation assay. Format: functional. The conditions noted are these: SK-OV-3, 44 h.

Activity calls are given as the source filed them. The calls are words filed in the database; no cut-off is given here.

With `Cc1ccc(C(=O)N(CCCN)[C@H](c2nc3cc(Cl)ccc3c(=O)n2Cc2ccccc2)C(C)C)cc1`, the Activity with PC-3 [1] is 34.4%; in the assay with SK-OV-3 [2], 14.5%; in the assay on PC-3 [3], 30%; with MCF7 [4], 21.2%; with DU-145 [5], 10.3%; in the assay on MCF7 [6], 17.6%. Moreover, the Activity in the assay on MCF7 [7] came out at 49.7%; with SK-OV-3 [8], 16.6%; in the assay with SK-OV-3 [9], 49.8%; in the assay with DU-145 [10] it was 53.7%; in assay [11], 99.4%; in the assay with DU-145 [12], 24.5%. For the same compound, the Activity in the assay with PC-3 [13] worked out at 25%.

Regarding `CC(C)[C@@H](c1nc2cc(Cl)ccc2c(=O)n1Cc1ccccc1)N(CCCN)C(=O)c1ccccc1F`, the values for the GI50 in the assay on DU-145 [14] and in the assay on MCF7 [15] were 720 nM and 2000 nM, respectively. Besides, the Activity in assay [11] was 95.9%.

For the compound `CC(C)[C@H](c1nc2cc(Cl)ccc2c(=O)n1Cc1ccccc1)N(CCCN)C(=O)c1ccccc1F`, the concentration for 50% growth inhibition (GI50) with DU-145 [14] was determined as 5600 nM; with DU-145 [17], 10.7 nM; with MCF7 [18] it was 4.2 nM; in the assay on SK-OV-3 [19], 34.8 nM; in the assay with PC-3 [20], 7.8 nM; in the assay with MCF7 [15] it was 3000 nM. The result in the assay on SK-OV-3 [16] was Active. Also, in assay [11], the Activity turned out to be 7.5%.

On to `CC(C)[C@@H](c1nc2cc(Cl)ccc2c(=O)n1Cc1ccccc1)N(CCCN)C(=O)c1cccc(F)c1`, for which the concentration for 50% growth inhibition (GI50) is 520 nM in the assay with DU-145 [14] and 630 nM in the assay with MCF7 [15]. Also, in assay [11], the Activity turned out to be 95.5%.

As for `CC(C)[C@@H](c1nc2cc(Cl)ccc2c(=O)n1Cc1ccccc1)N(CCCN)C(=O)c1ccc(F)cc1`, the GI50 with DU-145 [14] turned out to be 350 nM; in the assay with MCF7 [15], 1100 nM. Also, the Activity is given as 31% in the assay with PC-3 [1]; 22.5% in the assay with SK-OV-3 [2]; 24.2% in the assay on PC-3 [3]; 22.8% in the assay with MCF7 [4]; 9.5% in the assay on DU-145 [5]; 15.2% with MCF7 [6]. In addition, the Activity in the assay on MCF7 [7] came out at 51.3%; in the assay with SK-OV-3 [8], 16.2%; in the assay on SK-OV-3 [9], 51.9%; in the assay on DU-145 [10], 52.9%; in [11], 96.1%; in the assay with SK-OV-3 [21] it was 2.6%. Further, the figures for the Activity with DU-145 [12] and with PC-3 [13] were 27.7% and 32.9%, respectively.

Turning to `CC(C)[C@H](c1nc2cc(Cl)ccc2c(=O)n1Cc1ccccc1)N(CCCN)C(=O)c1ccc(F)cc1`, the 50% growth inhibitory concentration (GI50) in the assay on DU-145 [14] was 2200 nM; with DU-145 [17], 0.19 nM; with MCF7 [18] it was 1 nM; with SK-OV-3 [23], 0.01 nM; in the assay with PC-3 [20], 0.5 nM; with SK-OV-3 [25], 61000 nM. In the assay on MCF7 [15], it took 2500 nM to inhibit growth by half (GI50). The Activity in the assay with PC-3 [1] is reported as 12%; in the assay on SK-OV-3 [2], 58.5%; with PC-3 [3], 11.1%; in the assay on MCF7 [4], 53.2%; with MCF7 [6], 12%; in the assay on MCF7 [7], 25.1%. In addition, the Activity in the assay with SK-OV-3 [8] was found to be 13.8%; in the assay on SK-OV-3 [9], 3.5%; in [11], 2.7%; in the assay with SK-OV-3 [21], 58.8%; in the assay with PC-3 [13], 63.6%. Moreover, the outcome in the assay on SK-OV-3 [16], with SK-OV-3 [22] and in the assay with SK-OV-3 [24] was Active.

For `Cc1ccc(C(=O)N(CCCN)[C@@H](c2nc3cc(Cl)ccc3c(=O)n2Cc2ccccc2)C(C)C)cc1` [ISPINESIB], the Activity in the assay with PC-3 [1] is reported as 13.8%; with SK-OV-3 [2], 51.3%; with PC-3 [3], 10.1%; in the assay with MCF7 [4] it was 57.2%; in the assay on DU-145 [5], 10.8%; in the assay with MCF7 [6], 10.6%. For the same compound, the Activity with MCF7 [7] is 22.1%; in the assay with SK-OV-3 [8], 13.6%; in the assay on SK-OV-3 [9], 3.8%; in the assay with DU-145 [10], 24.8%; in [11], 8.8%; in the assay with DU-145 [12] it was 49.8%. Moreover, the Activity with PC-3 [13] turned out to be 60.9%.

Consider `CC(C)C(c1nc2cc(Cl)ccc2c(=O)n1Cc1ccccc1)N(CCCN)C(=O)c1cccc(F)c1` (racemic), for which the concentration for 50% growth inhibition (GI50) with DU-145 [14] was 3300 nM; in the assay with DU-145 [17], 4 nM; in the assay on MCF7 [18], 5.1 nM; with SK-OV-3 [19], 15.6 nM; with PC-3 [20] it was 17 nM; in the assay on MCF7 [15] it was 2900 nM. The Activity in assay [11] turned out to be 10.1%.
